For orientation: IC50 means the concentration needed to halve the response being measured.

From US20260159512A1, “BCAT2 INHIBITORS” (AGIOS PHARMACEUTICALS, INC., priority 2021, published 2026) come the findings set out here.

Common to all, as to conditions: average where tested multiple times
The target in assay [1] is T1, BCAT2 (Homo sapiens, UniProt O15382).
T1 sequence (O15382 28-392): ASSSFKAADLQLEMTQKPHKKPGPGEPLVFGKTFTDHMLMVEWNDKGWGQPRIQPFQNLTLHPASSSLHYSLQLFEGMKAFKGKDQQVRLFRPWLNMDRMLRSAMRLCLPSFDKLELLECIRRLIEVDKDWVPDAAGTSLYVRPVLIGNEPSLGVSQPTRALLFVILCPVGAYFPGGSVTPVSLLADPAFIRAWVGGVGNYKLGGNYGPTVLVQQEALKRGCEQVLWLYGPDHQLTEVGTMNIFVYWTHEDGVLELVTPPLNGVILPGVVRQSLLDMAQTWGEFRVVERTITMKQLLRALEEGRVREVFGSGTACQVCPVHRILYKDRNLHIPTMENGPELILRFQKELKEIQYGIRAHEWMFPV
Nature of the assay: BCAT2 in vitro enzyme inhibition assay (resazurin/diaphorase-coupled fluorescence). It is filed as biochemical. The gist of the method: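 Coupled fluorescence readout: glutamate formed from L-leucine/α-ketoglutarate transamination drives GDH/NAD/diaphorase reduction of resazurin (Ex 540/Em 590). Human BCAT2 was first exposed 1 h at room temperature to compound, top final 100 μM in 3-fold, 10-point series; substrate reaction ran 1 h before SDS quench, in technical duplicate with DMSO max and enzyme-free min controls.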

The target in assay [2] is T1, BCAT2. Kind of assay: BCAT2 in vitro cell inhibition using engineered A549 cells (KMV cell assay, 13C6-KMV by LC-MS/MS). It is filed as cell-based. On the set-up: The result was an engineered A549 cell line that expressed endogenous BCAT2; endogenous in cells; host or cells: A549 cells with MUT and BCAT1 knocked out by CRISPR/CAS9.
Assay [3] has as its target T2, hBCAT1 (Homo sapiens, UniProt P54687).
T2 sequence (P54687 1-386): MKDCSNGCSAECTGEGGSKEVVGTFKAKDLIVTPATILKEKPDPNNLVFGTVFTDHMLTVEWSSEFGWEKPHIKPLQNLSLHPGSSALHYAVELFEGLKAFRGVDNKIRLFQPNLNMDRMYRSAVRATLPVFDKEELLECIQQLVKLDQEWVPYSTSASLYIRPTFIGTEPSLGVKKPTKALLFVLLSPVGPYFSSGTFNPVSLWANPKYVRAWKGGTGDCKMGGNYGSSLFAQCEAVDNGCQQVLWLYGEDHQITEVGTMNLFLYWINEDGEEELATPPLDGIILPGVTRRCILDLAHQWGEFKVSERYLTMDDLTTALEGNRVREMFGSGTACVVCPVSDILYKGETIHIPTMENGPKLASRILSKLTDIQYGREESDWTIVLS
Kind of assay: BCAT1 in vitro enzyme inhibition assay (resazurin/diaphorase-coupled fluorescence). It is filed as biochemical. Summed up:
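Human BCAT1 activity read by resazurin/diaphorase-coupled fluorescence. Compounds added from 50× DMSO stocks at 1:50, giving 10-point 3-fold titrations from 100 μM top final concentration. Run in technical duplicate; repeat tests averaged.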
(Alamar Blue is a resazurin reagent that responds to reducing activity.)

With `O=C(N[C@H]1CCC[C@@H](n2c(-c3ccccc3F)nc3cc(-n4ccnn4)ncc32)C1)c1ncc(C(F)F)s1` [Example 149, 5-(difluoromethyl)-N-((1S,3R)-3-(2-(2-fluorophenyl)-6-(1H-1,2,3-triazol-1-yl)-3H-imidazo[4,5-c]pyridin-3-yl)cyclohexyl)thiazole-2-carboxamide], the figures for the half-inhibitory concentration (IC50) in assay [1], in assay [2] and in assay [3] were at most 0.1 µM, 0.1 to 0.5 µM and 1 to 5 µM, respectively.

On to `O=C(N[C@H]1CCC[C@@H](n2c(-c3ccccc3F)nc3cnc(-n4nccn4)cc32)C1)c1ncc(Cl)s1` [Example 71, 5-chloro-N-((1S,3R)-3-(2-(2-fluorophenyl)-6-(2H-1,2,3-triazol-2-yl)-1H-imidazo[4,5-c]pyridin-1-yl)cyclohexyl)thiazole-2-carboxamide], for which the IC50 in assay [1] was at most 0.1 µM; in assay [2], at most 0.1 µM; in assay [3], under 0.5 µM.

`NC1CC(NC(=O)c2ncc(Cl)s2)CC(n2c(-c3ccccc3F)nc3cnc(-c4nc[nH]n4)cc32)C1` (single isomer, unassigned) [Example 455, N-(3-amino-5-(2-(2-fluorophenyl)-6-(1H-1,2,4-triazol-3-yl)-1H-imidazo[4,5-c]pyridin-1-yl)cyclohexyl)-5-chlorothiazole-2-carboxamide]: the figures for the concentration for half-maximal inhibition (IC50) in assay [1], in assay [2] and in assay [3] were at most 0.1 µM, 0.1 to 0.5 µM and under 0.5 µM, respectively.

As to `O=C(N[C@H]1CCC[C@@H](n2c(-c3ccccc3F)nc3cnc(N4CCC(O)C4)cc32)C1)c1ncc(Cl)s1` (stereo partly drawn) [Example 199, 5-chloro-N-((1S,3R)-3-(2-(2-fluorophenyl)-6-(3-hydroxypyrrolidin-1-yl)-1H-imidazo[4,5-c]pyridin-1-yl)cyclohexyl)thiazole-2-carboxamide], the results for the IC50 in assay [1], in assay [2] and in assay [3] were at most 0.1 µM, over 1 µM and over 5 µM, respectively.

As for `O=C(N[C@H]1CCC[C@@H](n2c(-c3ccccc3F)nc3cnc(-c4ncccn4)cc32)[C@@H]1O)c1ncc(Cl)s1` [Example 245, 5-chloro-N-((1S,2R,3R)-3-(2-(2-fluorophenyl)-6-(pyrimidin-2-yl)-1H-imidazo[4,5-c]pyridin-1-yl)-2-hydroxycyclohexyl)thiazole-2-carboxamide], the results for the IC50 in assay [1], in assay [2] and in assay [3] were at most 0.1 µM, at most 0.1 µM and under 0.5 µM, respectively.

In the case of `COc1cc2c(cn1)nc(-c1ccccc1F)n2[C@@H]1C[C@@H](O)C[C@H](NC(=O)c2ncc(Cl)s2)C1` [Example 278, 5-chloro-N-((1R,3S,5S)-3-(2-(2-fluorophenyl)-6-methoxy-1H-imidazo[4,5-c]pyridin-1-yl)-5-hydroxycyclohexyl)thiazole-2-carboxamide], the results for the IC50 in assay [1], in assay [2] and in assay [3] were at most 0.1 µM, 0.1 to 0.5 µM and under 0.5 µM, respectively.

As for `O=C(N[C@H]1CCC[C@@H](n2c(-c3ncccc3F)nc3cnc(-n4nccn4)cc32)C1)c1ncc(Br)s1` [Example 22, 5-bromo-N-((1S,3R)-3-(2-(3-fluoropyridin-2-yl)-6-(2H-1,2,3-triazol-2-yl)-1H-imidazo[4,5-c]pyridin-1-yl)cyclohexyl)thiazole-2-carboxamide], the IC50 in assay [1] is at most 0.1 µM; in assay [2], at most 0.1 µM; in assay [3], under 0.5 µM.

As to `CC(C)Cc1nc2cnc(-n3nccn3)cc2n1[C@@H]1CCC[C@H](NC(=O)c2ccc(Cl)s2)[C@H]1O` [Example 393, 5-chloro-N-((1S,2R,3R)-2-hydroxy-3-(2-isobutyl-6-(2H-1,2,3-triazol-2-yl)-1H-imidazo[4,5-c]pyridin-1-yl)cyclohexyl)thiophene-2-carboxamide], the values for the IC50 in assay [1], in assay [2] and in assay [3] were at most 0.1 µM, at most 0.1 µM and under 0.5 µM, respectively.

For `O=C(N[C@H]1CCC[C@@H](n2c(-c3ncccc3F)nc3cnc(-n4nccn4)cc32)C1)c1ccc(Cl)s1` [Example 76, 5-chloro-N-((1S,3R)-3-(2-(3-fluoropyridin-2-yl)-6-(2H-1,2,3-triazol-2-yl)-1H-imidazo[4,5-c]pyridin-1-yl)cyclohexyl)thiophene-2-carboxamide], the IC50 in assay [1] is at most 0.1 µM; in assay [2], at most 0.1 µM; in assay [3], under 0.5 µM.

With `CC(C)Cc1nc2cnc(-n3cc(CO)nn3)cc2n1[C@@H]1CCC[C@H](NC(=O)c2ncc(Cl)s2)C1` [Example 346, 5-chloro-N-((1S,3R)-3-(6-(4-(hydroxymethyl)-1H-1,2,3-triazol-1-yl)-2-isobutyl-1H-imidazo[4,5-c]pyridin-1-yl)cyclohexyl)thiazole-2-carboxamide], the IC50 in assay [1] is 0.1 to 0.5 µM; in assay [2] it was over 1 µM; in assay [3], over 5 µM.

For the compound `CC(C)Cc1nc2cnc(-c3nc[nH]n3)cc2n1[C@@H]1CCC[C@H](NC(=O)c2ccc(Cl)s2)C1` [Example 317, 5-chloro-N-((1S,3R)-3-(2-isobutyl-6-(1H-1,2,4-triazol-3-yl)-1H-imidazo[4,5-c]pyridin-1-yl)cyclohexyl)thiophene-2-carboxamide], the values for the IC50 in assay [1], in assay [2] and in assay [3] were at most 0.1 µM, at most 0.1 µM and under 0.5 µM, respectively.

`CC(C)Cc1nc2cnc(-c3ccn[nH]3)cc2n1[C@@H]1CCC[C@H](NC(=O)c2ncc(Cl)s2)[C@H]1O` [Example 225, 5-chloro-N-((1S,2R,3R)-2-hydroxy-3-(2-isobutyl-6-(1H-pyrazol-5-yl)-1H-imidazo[4,5-c]pyridin-1-yl)cyclohexyl)thiazole-2-carboxamide]: the IC50 in assay [1] is at most 0.1 µM; in assay [2], 0.1 to 0.5 µM; in assay [3] it was under 0.5 µM.

Regarding `O=C(N[C@H]1CCC[C@@H](n2c(-c3ccccn3)nc3cc(-n4ccnn4)ncc32)C1)c1ccc(Br)s1` [Example 152, 5-bromo-N-((1S,3R)-3-(2-(pyridin-2-yl)-6-(1H-1,2,3-triazol-1-yl)-3H-imidazo[4,5-c]pyridin-3-yl)cyclohexyl)thiophene-2-carboxamide], the concentration for half-maximal inhibition (IC50) was at most 0.1 µM in assay [1], at most 0.1 µM in assay [2] and 0.5 to 1 µM in assay [3].

As for `O=C(N[C@H]1CCC[C@@H](n2c(-c3ccccc3F)nc3cnc(-c4ncn(C(F)F)n4)cc32)C1)c1ncc(Cl)s1` [Example 378, 5-chloro-N-((1S,3R)-3-(6-(1-(difluoromethyl)-1H-1,2,4-triazol-3-yl)-2-(2-fluorophenyl)-1H-imidazo[4,5-c]pyridin-1-yl)cyclohexyl)thiazole-2-carboxamide], the IC50 in assay [1] was at most 0.1 µM; in assay [2], at most 0.1 µM; in assay [3] it was under 0.5 µM.

With `O=C(N[C@H]1CCC[C@@H](n2c(-c3ccccc3F)nc3cnc(-c4ccccn4)cc32)[C@@H]1O)c1ncc(Cl)s1` [Example 242, 5-chloro-N-((1S,2R,3R)-3-(2-(2-fluorophenyl)-6-(pyridin-2-yl)-1H-imidazo[4,5-c]pyridin-1-yl)-2-hydroxycyclohexyl)thiazole-2-carboxamide], the IC50 in assay [1] was at most 0.1 µM; in assay [2], at most 0.1 µM; in assay [3] it was under 0.5 µM.

`O=C(N[C@H]1C[C@H](O)C[C@@H](n2c(-c3ccccc3F)nc3cnc(-c4nc[nH]n4)cc32)C1)c1ccc(Cl)s1` [Example 254, 5-chloro-N-((1R,3S,5S)-3-(2-(2-fluorophenyl)-6-(1H-1,2,4-triazol-3-yl)-1H-imidazo[4,5-c]pyridin-1-yl)-5-hydroxycyclohexyl)thiophene-2-carboxamide]: the IC50 in assay [1] is at most 0.1 µM; in assay [2] it was at most 0.1 µM; in assay [3], under 0.5 µM.
